# Tests used:
# [1] = Pharmacokinetic experiment in mice, plasma concentrations by LC-MS/MS; assay type: in vivo, C57Bl/6J mice; conditions: higher doses, oral, compared to psilocybin
# Procedure: (§1) In a pharmacokinetic experiment in C57Bl/6J mice (3 animals per timepoint; schedule shown below) two example compounds, Cy1 (4-HO-EPT glycoside) and Cy2 (4-HO-DMT glycoside) were dosed at two different concentrations (20 mg/kg dose shown here) and the parent compounds and their de-glycosylated forms, 4-HO-EPT and psilocin (4-HO-DMT), respectively, were measured by LC-MS/MS in plasma and brain tissue samples. For comparison, psilocybin was dosed at 1.5 mg/kg orally and plasma and brain tissue concentrations of psilocin (4-HO-DMT) were measured. Samples were collected at four or five different timepoints (from 10-minutes post dosing up to 6-hours post dosing) following the test article administration.
# (§2) Results are reported in ng/mL for the concentration in plasma and in ng/g tissue for the concentration measured in brain samples.
# (§3) Results: The graphs in FIG. 35, FIG. 36, FIG. 37, and FIG. 38 display the time course of concentrations of compounds as indicated. For each time point the data for the individual animals are plotted.
# [2] = Pharmacokinetic experiment in mice, brain tissue concentrations by LC-MS/MS; assay type: in vivo, C57Bl/6J mice; conditions: higher doses, oral, compared to psilocybin
# Procedure: as §1, §2, §3
smiles,measurement,setting,value
"CCCN(CC)CCc1c[nH]c2cccc(O[C@@H]3O[C@H](CO)[C@@H](O)[C@H](O)[C@H]3O)c12 [Cy1, 4-HO-EPT glycoside]","period of exposure, plasma",[1],extended
same,"period of exposure, brain",[2],extended
